Measurements published in patent EP0315434A2, “Pyridoxal hydrazone derivatives their production and use and pharmaceutical compositions containing the same” (YISSUM RESEARCH DEVELOPMENT COMPANY OF THE HEBREW …, priority 1987, dated 1989).
Where two headings read alike, the source gives them in different places.

What was measured:
[1] = Fate of ⁵⁹Fe tracer incubated with chelator and injected into normal rats (radioiron distribution and excretion); format: in vivo; settings: for Radioiron Distribution in % Feces / Radioiron Distribution in % Total excretion / Radioiron Distribution in % Urine / Radioiron Distribution in % Blood / Radioiron Distribution in % Liver / Radioiron Distribution in % Spleen: 10 mg chelator with ⁵⁹Fe, subcutaneous, normal rats; for Radioiron Distribution in % Feces / Radioiron Distribution in % Total excretion / Radioiron Distribution in % Urine: cumulative within 4 days; for Radioiron Distribution in % Blood / Radioiron Distribution in % Liver / Radioiron Distribution in % Spleen: within 4 days; for TOTAL EXCRETION OF RADIO-IRON IN RATS %: as in Table 1
Experimental: Table 1 describes the fate of ⁵⁹Fe tracer reincubated […] with 10 mg of some of the above iron chelators and then injected subcutaneously to groups of 4 normal rats. Numbers represent mean cumulative radioiron excretion within 4 days of injection. For comparison, spontaneous excretion of radioiron and the excretion of desferrioxamine (DF) bound radioiron are also given. […]
Spleen and kidney were counted as whole organs.
(§1) The excretion of radioiron following ⁵⁹Fe labelling was measured in animals confined to solitary metabolic cages with stainless steel grid bottoms, and stool and urine were collected separately.

[2] = Mobilization of iron from hepatic parenchymal stores in hypertransfused rats labelled with ⁵⁹Fe-ferritin; format: in vivo
Experimental: In each case, 40 mg of each compound was administered per animal in a single subcutaneous injection.
In vivo studies of chelating efficiency were performed in two models: (a) normal rats injected i.p. with 10 mg of either desferrioxamine B (DF), PIH of the prior art, PPH of Example 4 or PPHE from Example 5 labelled in vitro with ⁵⁹Fe; and (b) hypertransfused rats receiving twice 4 ml/100gm packed RBC intravenously 5 and 3 days prior to study (hematocrit 68%) and labelled with ⁵⁹Fe-ferritin injected i.v. 24h prior to iron chelating therapy as described previously. Drugs to be tested in the ⁵⁹Fe-ferritin model were given either by i.p. injection or by gastric tube at a dose of 40 mg per animal. Radioiron excretion and organ distribution were determined after 4 days
The radioactivity of spleen, weighed portions of the liver, and 1 ml samples of blood were determined in an automatic well type scintillation counter (Packard Autogamma Model 5360 Scintillation spectrometer). Spleen and kidney were counted as whole organs.
as §1, with “Whole body counts were performed in a small animal counter (Packard Model 446 Armac) scintillation detector. The” for “The”

[3] = Iron chelation in H₂O (spectrophotometric, apparent K), ferrous ions; format: physicochemical
[4] = system: chloroquine-resistant strain of P. falciparum (FCR-3)
Experimental: Cultures of a chloroquine-resistant strain of P. falciparum (FCR-3), cultivated in human erythrocytes (a technique widely used at the Kuvin Centre, Hebrew University Hadassah Medical School), were suspended in solutions containing chelators and then cultured for 3 days. Growth of parasites was determined by either slide counts or by incorporation of ³H-hypoxanthine. The parasite growth was monitored by microscopic slide counts. […]

[5] = rats
[6] = target: T1, Ribonucleoside Diphosphate Reductase (RdR) (Homo sapiens, UniProt P31350); assay: Inhibition of ribonucleotide diphosphate reductase; format: biochemical
T1 sequence (P31350 1-389): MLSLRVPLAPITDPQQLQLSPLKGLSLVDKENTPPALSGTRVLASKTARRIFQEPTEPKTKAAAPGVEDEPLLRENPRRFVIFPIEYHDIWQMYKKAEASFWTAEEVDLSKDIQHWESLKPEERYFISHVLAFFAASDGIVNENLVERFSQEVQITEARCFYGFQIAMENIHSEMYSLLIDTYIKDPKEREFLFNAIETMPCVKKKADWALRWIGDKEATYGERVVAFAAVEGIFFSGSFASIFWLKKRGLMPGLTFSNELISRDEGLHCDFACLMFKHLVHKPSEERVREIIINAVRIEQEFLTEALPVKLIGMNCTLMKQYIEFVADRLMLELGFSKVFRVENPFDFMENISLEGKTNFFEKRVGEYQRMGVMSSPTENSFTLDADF

Lewis lung carcinoma = assay: Inhibition of Lewis lung carcinoma (primary tumor and metastases); format: in vivo; settings: dose 1.25 mg/kg
Text: It becomes possible also to look at the ability of one of the compounds (Ex. 1) to inhibit the growth of Lewis lung carcinoma. With a view to possible mechanisms we employed the well-established anti-cancer antibiotics (a) bleomycin, and (b) daunorubicin, as reference compounds.

[7] = 40 mg i.p., hypertransfused rats, 4 days
[8] = hypertransfused rats, 40 mg per animal, after 4 days, Desferral i.p., route not printed for Ex. 4 and Ex. 5, mean ± SD
[9] = oral administration of 40 mg, hypertransfused rats
[10] = molar concentration 2 x 10⁻⁵, cultured 3 days

Compound	Radioiron Distribution in % Feces [1] [%]	Radioiron Distribution in % Total excretion [1] [%]	Radioiron Distribution in % Urine [1] [%]	Radioiron Distribution in % Blood [1] [%]	Radioiron Distribution in % Liver [1] [%]	Radioiron Distribution in % Spleen [1] [%]	TOTAL EXCRETION OF RADIO-IRON IN RATS % [1] [%]	INHIBITION OF GROWTH OF DRUG-RESISTANT STRAIN OF P. falciparum % INHIBITION [4, 10] [%]	Inhibition of Ribonucleoside Diphosphate Reductase (RdR) % ([6]; dose 1 x 10⁻⁵ M) [%]	Inhibition of Ribonucleoside Diphosphate Reductase (RdR) % ([6]; dose 10 x 10⁻⁵ M) [%]	Inhibition of Ribonucleoside Diphosphate Reductase (RdR) % ([6]; dose 100 x 10⁻⁵ M) [%]	also measured
CCOC(=O)[n+]1cc(CO)c(C=NNc2ncccn2)c(O)c1C [Ex. 5, 1-(N-ethoxycarbonylpyridoxylidenium]-2-[2′-pyrimidyl] hydrazine]	67.3±2.4	96.2±3.4	28.9±1.0	4.2±0.2	2.9±0.2	0.06±0.03	96.2± 3.4	90.3	–	–	–	excretion of the radioiron label in the stool [2, 7]: 72%; reduction in hepatocellular (hepatic) radioactivity [2, 7]: 69%; ORGAN DISTRIBUTION AND EXCRETION OF ⁵⁹Fe-FERRITIN (%) BLOOD [2, 8]: 3.1±0.6%; ORGAN DISTRIBUTION AND EXCRETION OF ⁵⁹Fe-FERRITIN (%) LIVER [2, 8]: 63.8± 8.7%; ORGAN DISTRIBUTION AND EXCRETION OF ⁵⁹Fe-FERRITIN (%) STOOL [2, 8]: 27.6±1.3%; ORGAN DISTRIBUTION AND EXCRETION OF ⁵⁹Fe-FERRITIN (%) TOTAL EXCRETION [2, 8]: 28.1±1.3%; ORGAN DISTRIBUTION AND EXCRETION OF ⁵⁹Fe-FERRITIN (%) URINE [2, 8]: 0.5±0%; greater oral chelating efficiency than an identical dose of parenteral DF ([2]; oral 40 mg versus parenteral DF 40 mg): roughly 20%; excretion of radioiron [2, 9]: 28%; reduction in hepatic ⁵⁹Fe [2, 9]: 27%; effectiveness in the chelation test relative to prior art PIH ([3]; compared with PIH): about sixty times more effective; higher affinity for ferrous than for ferric ions ([3]; ferrous versus ferric): ~30 fold; tolerance ([5]; 100 mg/kg/d by oral or parenteral administration): well tolerated; biochemical tests of hepatic and renal function, complete blood counts, hepatic and renal histology ([5]; after 3 months of continuous treatment): no indications of toxicity
Cc1ncc(CO)c(C=NNc2cnccn2)c1O [Ex. 6, 1-[2′-pyrazyl]-2-[pyridoxylidene] hydrazine]	–	–	–	–	–	–	–	–	64	81	83	–
Cc1ncc(CO)c(C=NNc2ccccn2)c1O.O=S(=O)([O-])[O-].[Cu+2] [Ex. 7]	–	–	–	–	–	–	–	–	–	–	–	INHIBITION OF GROWTH OF DRUG-RESISTANT STRAIN OF P. falciparum % INHIBITION ([4]; molar concentration 1 x 10⁻¹², after 2 hours of exposure): 100 ^(**) %
Cc1ncc(CO)c(C=NNC(=O)c2cc[n+](C)cc2)c1O.[I-] [Ex. A, 1-[pyridoxylidene]-2-[N-methylisonicotinoylium] hydrazine iodide, reference compound]	22.7±1.1	26.4±1.3	3.7±0.2	33.3±2.1	12.8±0.2	0.56±0.02	26.4± 1.3	16.6	–	–	–	–
NC(=O)NO [Hydroxyurea, reference compound]	–	–	–	–	–	–	–	–	15	37	73	–
bleomycin [reference compound]	–	–	–	–	–	–	–	–	–	–	–	Inhibition of Lewis Carcinoma Metastases % (Lewis lung carcinoma): 48%; Inhibition of Lewis Carcinoma Primary Tumor % (Lewis lung carcinoma): 24%
